Source: ChEMBL document CHEMBL3045062, “Potent in vitro and in vivo antitubercular activity of certain newly synthesized indophenazine 1,3,5-trisubstituted pyrazoline derivatives bearing benzofuran” (Med Chem Res, 2011)
≈ marks a conversion by molar mass, not a printed value.

Key:
[1] = system: Mycobacterium tuberculosis; assay: Antitubercular activity against Mycobacterium tuberculosis H37Rv after 60 days; type: functional
Vero = assay: Cytotoxicity against Chlorocebus aethiops (African green monkey) Vero cells after 72 hr; type: cell-based; conditions: Chlorocebus sabaeus

COc1ccccc1C1CC(c2cc3cc(O)ccc3o2)=NN1C(=O)Cn1c2ccccc2c2nc3ccccc3nc21 (configuration not stated)
MIC50 [1]: 11.8 µg/mL (≈ 20.8 µM) | MIC90 [1]: 14.2 µg/mL (≈ 25 µM) | IC50 (Vero): > 226 µM

CO[C@H]1/C=C/O[C@@]2(C)Oc3c(C)c(O)c4c(O)c(c(/C=N/N5CCN(C)CC5)c(O)c4c3C2=O)NC(=O)/C(C)=C\C=C\[C@H](C)[C@H](O)[C@@H](C)[C@@H](O)[C@@H](C)[C@H](OC(C)=O)[C@@H]1C [RIFAMPIN]
MIC50 [1]: 0.5 µg/mL (≈ 0.608 µM) | MIC90 [1]: 2 µg/mL (≈ 2.43 µM) | IC50 (Vero): > 77.4 µM

O=C(Cn1c2ccccc2c2nc3ccccc3nc21)N1N=C(c2cc3cc(O)ccc3o2)CC1c1cccc([N+](=O)[O-])c1 (configuration not stated)
MIC50 [1]: 0.62 µg/mL (≈ 1.06 µM) | MIC90 [1]: 1.24 µg/mL (≈ 2.13 µM) | IC50 (Vero): > 180 µM

O=C(Cn1c2ccccc2c2nc3ccccc3nc21)N1N=C(c2cc3cc(O)ccc3o2)CC1c1ccccc1 (configuration not stated)
IC50 (Vero): > 197 µM

CN(C)c1ccc(C2CC(c3cc4cc(O)ccc4o3)=NN2C(=O)Cn2c3ccccc3c3nc4ccccc4nc32)cc1 (configuration not stated)
MIC50 [1]: 5.56 µg/mL (≈ 9.58 µM) | MIC90 [1]: 9.21 µg/mL (≈ 15.9 µM) | IC50 (Vero): > 216 µM

O=C(Cn1c2ccccc2c2nc3ccccc3nc21)N1N=C(c2cc3cc(O)ccc3o2)CC1c1ccco1 (configuration not stated)
MIC50 [1]: 1.1 µg/mL (≈ 2.09 µM) | MIC90 [1]: 3.12 µg/mL (≈ 5.91 µM) | IC50 (Vero): > 198 µM

O=C(Cn1c2ccccc2c2nc3ccccc3nc21)N1N=C(c2cc3cc(O)ccc3o2)CC1c1ccccc1O (configuration not stated)
MIC50 [1]: 9.81 µg/mL (≈ 17.7 µM) | MIC90 [1]: 10.8 µg/mL (≈ 19.6 µM) | IC50 (Vero): > 227 µM

O=C(Cn1c2ccccc2c2nc3ccccc3nc21)N1N=C(c2cc3cc(O)ccc3o2)CC1c1ccc(O)cc1 (configuration not stated)
IC50 (Vero): > 245 µM

COc1ccc(C2CC(c3cc4cc(O)ccc4o3)=NN2C(=O)Cn2c3ccccc3c3nc4ccccc4nc32)cc1 (configuration not stated)
MIC50 [1]: 12.1 µg/mL (≈ 21.3 µM) | MIC90 [1]: 14.3 µg/mL (≈ 25.2 µM) | IC50 (Vero): > 226 µM

O=C(Cn1c2ccccc2c2nc3ccccc3nc21)N1N=C(c2cc3cc(O)ccc3o2)CC1c1ccccc1[N+](=O)[O-] (configuration not stated)
MIC50 [1]: 0.16 µg/mL (≈ 0.275 µM) | MIC90 [1]: 0.42 µg/mL (≈ 0.721 µM) | IC50 (Vero): > 144 µM

COc1c(N2CCNC(C)C2)c(F)cc2c(=O)c(C(=O)O)cn(C3CC3)c12 (configuration not stated) [GATIFLOXACIN]
MIC50 [1]: 0.12 µg/mL (≈ 0.32 µM) | MIC90 [1]: 0.5 µg/mL (≈ 1.33 µM) | IC50 (Vero): > 160 µM

CC(=O)c1ccccc1C1CC(c2cc3cc(O)ccc3o2)=NN1C(=O)Cn1c2ccccc2c2nc3ccccc3nc21 (configuration not stated)
IC50 (Vero): > 220 µM

COc1ccc(C2CC(c3cc4cc(O)ccc4o3)=NN2C(=O)Cn2c3ccccc3c3nc4ccccc4nc32)c(O)c1 (configuration not stated)
MIC50 [1]: 4.56 µg/mL (≈ 7.81 µM) | MIC90 [1]: 8.32 µg/mL (≈ 14.3 µM) | IC50 (Vero): > 206 µM

O=C(Cn1c2ccccc2c2nc3ccccc3nc21)N1N=C(c2cc3cc(O)ccc3o2)CC1/C=C/c1ccccc1 (configuration not stated)
MIC50 [1]: 0.98 µg/mL (≈ 1.74 µM) | MIC90 [1]: 3.67 µg/mL (≈ 6.51 µM) | IC50 (Vero): > 206 µM

O=C(Cn1c2ccccc2c2nc3ccccc3nc21)N1N=C(c2cc3cc(O)ccc3o2)CC1c1ccc(Cl)cc1 (configuration not stated)
MIC50 [1]: 2.45 µg/mL (≈ 4.28 µM) | MIC90 [1]: 4.2 µg/mL (≈ 7.34 µM) | IC50 (Vero): > 205 µM

O=C(Cn1c2ccccc2c2nc3ccccc3nc21)N1N=C(c2cc3cc(O)ccc3o2)CC1c1ccccc1Cl (configuration not stated)
MIC50 [1]: 1.75 µg/mL (≈ 3.06 µM) | MIC90 [1]: 2.56 µg/mL (≈ 4.48 µM) | IC50 (Vero): > 196 µM
